# Where two headings read alike, the source gives them in different places.
# Legend:
# Format in all cases: cell-based
# MDA-MB-231/ATCC = test: NCI 60 antitumor screening (single dose / five doses); details: Homo sapiens
# [1] = system: 60 human subpanel cancer cell lines; test: NCI 60 antitumor screening, mean over the panel (single dose); details: mean over 60 cancer cell lines, single dose 10 μM
# Method in brief: (§1)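 Percent growth inhibition, calculated as 100 minus percent growth (G%) of treated cells, following a single 10 μM exposure in the NCI 60 human cancer cell screen; triplicate runs.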
# HCT-15 = test: NCI 60 antitumor screening (single dose / five doses); details: Homo sapiens
# A498 = test: as above; details: Homo sapiens
# NCI/ADR-RES = test: as above; details: Homo sapiens; for inhibition at 10 µM: read-out: Growth inhibition percentage (GI %)
# UACC-62 = test: as above; details: Homo sapiens
# EKVX = test: as above; details: Homo sapiens; for inhibition at 10 µM: read-out: Growth inhibition percentage (GI %)
# SK-MEL-5 = test: as above; details: Homo sapiens
# DU-145 = test: as above; details: Homo sapiens
# IGROV1 = test: as above; details: Homo sapiens
# LOX IMVI = test: as above; details: Homo sapiens; for inhibition at 10 µM: read-out: Growth inhibition percentage (GI %)
# SF-295 = test: as above; details: Homo sapiens
# BT-549 = test: as above; details: Homo sapiens
# MDA-MB-435 = test: as above; details: Homo sapiens
# SR = test: as above; details: Homo sapiens; for inhibition at 10 µM: read-out: Growth inhibition percentage (GI %)
# MOLT-4 = test: as above; details: Homo sapiens
# RXF 393 = test: as above; details: Homo sapiens
# SK-MEL-28 = test: as above; details: Homo sapiens
# SN 12C = test: as above; details: Homo sapiens, SN12C; for inhibition at 10 µM: read-out: Growth inhibition percentage (GI %)
# SNB-75 = test: as above; details: Homo sapiens
# HL-60(TB) = test: as above; details: Homo sapiens
# SK-OV-3 = test: NCI 60 antitumor screening (single dose); details: Homo sapiens; SK-OV-3 (ovarian cancer), single dose 10 μM; read-out: Growth inhibition percentage (GI %)
# Method in brief: as §1
# OVCAR-4 = test: NCI 60 antitumor screening (single dose); details: Homo sapiens; OVCAR-4 (ovarian cancer), single dose 10 μM; read-out: Growth inhibition percentage (GI %)
# Method in brief: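 Values are GI% (100 minus percent growth, G%) from the NCI 60 cell line screen at one 10 μM concentration. Tests were done in triplicate under NCI protocol, with a mean across the whole panel reported as well.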
# NCI-H23 = test: NCI 60 antitumor screening (single dose); details: Homo sapiens; NCI-H23 (non-small cell lung cancer), single dose 10 μM; read-out: Growth inhibition percentage (GI %)
# Method in brief: as §1
# COLO 205 = test: NCI 60 antitumor screening (single dose / five doses); details: Homo sapiens
# HCT-116 = test: as above; details: Homo sapiens
# SK-MEL-2 = test: as above; details: Homo sapiens
# MDA-MB-468 = test: as above; details: Homo sapiens
smiles,measurement,setting,value
"O=[N+]([O-])c1cccc(/C=N/Nc2nc(N/N=C/c3cccc([N+](=O)[O-])c3)nc(N3CCCCC3)n2)c1 [compound 7f, 2,4-Bis[(E)-2-[(3-Nitrophenyl)methylidene]hydrazin-1-yl]-6-(piperidin-1-yl)-1,3,5-triazine]",inhibition at 10 µM,"MDA-MB-231/ATCC; MDA-MB-231, read-out: Growth inhibition percentage (GI %)",0.87%
same,Mean GI %,[1],30.94%
same,inhibition at 10 µM,"HCT-15; HCT-15, read-out: Growth inhibition percentage (GI %)",53.5%
same,inhibition at 10 µM,"A498; A498, read-out: Growth inhibition percentage (GI %)",18.7%
same,inhibition at 10 µM,NCI/ADR-RES; NCI/ADR-RES,32.8%
same,inhibition at 10 µM,"UACC-62; UACC-62, read-out: Growth inhibition percentage (GI %)",43.7%
same,inhibition at 10 µM,EKVX; EKVX,34.9%
same,inhibition at 10 µM,"SK-MEL-5; SK-MEL-5, read-out: Growth inhibition percentage (GI %)",52.4%
same,inhibition at 10 µM,"DU-145; DU-145, read-out: Growth inhibition percentage (GI %)",29.8%
same,inhibition at 10 µM,"IGROV1; IGROV-1, read-out: Growth inhibition percentage (GI %)",51.3%
same,inhibition at 10 µM,LOX IMVI; LOX IMVI,49.1%
same,inhibition at 10 µM,"SF-295; SF-295, read-out: Growth inhibition percentage (GI %)",28.3%
same,inhibition at 10 µM,"BT-549; BT-549, read-out: Growth inhibition percentage (GI %)",28.2%
same,inhibition at 10 µM,"MDA-MB-435; MDA-MB-435, read-out: Growth inhibition percentage (GI %)",26.1%
same,inhibition at 10 µM,SR; SR,53.3%
same,inhibition at 10 µM,"MOLT-4; MOLT-4, read-out: Growth inhibition percentage (GI %)",57.2%
same,inhibition at 10 µM,"RXF 393; RXF 393, read-out: Growth inhibition percentage (GI %)",-3.98%
same,inhibition at 10 µM,"SK-MEL-28; SK-MEL-28, read-out: Growth inhibition percentage (GI %)",31.4%
same,inhibition at 10 µM,SN 12C,31.9%
same,inhibition at 10 µM,"SNB-75; SNB-75, read-out: Growth inhibition percentage (GI %)",-0.71%
same,inhibition at 10 µM,"HL-60(TB); HL-60, read-out: Growth inhibition percentage (GI %)",42.8%
same,inhibition at 10 µM,SK-OV-3,-14.3%
same,inhibition at 10 µM,OVCAR-4,32.3%
same,inhibition at 10 µM,NCI-H23,37.8%
same,inhibition at 10 µM,"COLO 205; COLO 205, read-out: Growth inhibition percentage (GI %)",24.1%
same,inhibition at 10 µM,"HCT-116; HCT-116, read-out: Growth inhibition percentage (GI %)",47%
same,inhibition at 10 µM,"SK-MEL-2; SK-MEL-2, read-out: Growth inhibition percentage (GI %)",36%
same,inhibition at 10 µM,"MDA-MB-468; MDA-MB-468, read-out: Growth inhibition percentage (GI %)",26.4%
"CN(C)c1ccc(/C=N/Nc2nc(N/N=C/c3ccc(N(C)C)cc3)nc(N3CCCCC3)n2)cc1 [compound 7g, 4-[(1e)-(2-{4-[(E)-2-{[4-(dimethylamino)phenyl]methylidene}chydrazin-1-yl]-6-(piperidin-1-yl)-1,3,5-triazin-2-yl}hydrazin-1-ylidene)methyl]-N,N-dimethylaniline]",GI50,"MDA-MB-231/ATCC; MDA-MB-231/ ATCC, five doses (0.01–100 μM), read-out: GI50",1800 nM
same,inhibition at 10 µM,"MDA-MB-231/ATCC; MDA-MB-231/ATCC (breast cancer), single dose 10 μM, read-out: Growth inhibition percentage (GI %)",31.4%
same,Mean GI %,[1],35.10%
same,inhibition at 10 µM,"HCT-15; HCT-15 (colon cancer), single dose 10 μM, read-out: Growth inhibition percentage (GI %)",99.9%
same,GI50,"HCT-15; HCT-15, five doses (0.01–100 μM), read-out: GI50",1870 nM
same,inhibition at 10 µM,"A498; A498 (renal cancer), single dose 10 μM, read-out: Growth inhibition percentage (GI %)",-15.1%
same,GI50,"A498; A498, five doses (0.01–100 μM), read-out: GI50",1580 nM
same,inhibition at 10 µM,"NCI/ADR-RES; NCI/ADR-RES (ovarian cancer), single dose 10 μM",41.7%
same,GI50,"NCI/ADR-RES; NCI/ADR-RES, five doses (0.01–100 μM), read-out: GI50",3190 nM
same,inhibition at 10 µM,"UACC-62; UACC-62 (melanoma), single dose 10 μM, read-out: Growth inhibition percentage (GI %)",-0.61%
same,GI50,"UACC-62; UACC-62, five doses (0.01–100 μM), read-out: GI50",1840 nM
same,inhibition at 10 µM,"EKVX; EKVX (non-small cell lung cancer), single dose 10 μM",2.99%
same,GI50,"EKVX; EKVX, five doses (0.01–100 μM), read-out: GI50",3130 nM
same,inhibition at 10 µM,"SK-MEL-5; SK-MEL-5 (melanoma), single dose 10 μM, read-out: Growth inhibition percentage (GI %)",13.3%
same,GI50,"SK-MEL-5; SK-MEL-5, five doses (0.01–100 μM), read-out: GI50",1730 nM
same,inhibition at 10 µM,"DU-145; DU-145 (prostate cancer), single dose 10 μM, read-out: Growth inhibition percentage (GI %)",22.5%
same,GI50,"DU-145; DU-145, five doses (0.01–100 μM), read-out: GI50",3920 nM
same,inhibition at 10 µM,"IGROV1; IGROV-1, IGROV1 (ovarian cancer), single dose 10 μM, read-out: Growth inhibition percentage (GI %)",6.23%
same,GI50,"IGROV1; IGROV-1, IGROV1, five doses (0.01–100 μM), read-out: GI50",2960 nM
same,inhibition at 10 µM,"LOX IMVI; LOX IMVI (melanoma), single dose 10 μM",173%
same,GI50,"LOX IMVI; LOX IMVI, five doses (0.01–100 μM), read-out: GI50",1610 nM
same,inhibition at 10 µM,"SF-295; SF-295 (CNS cancer), single dose 10 μM, read-out: Growth inhibition percentage (GI %)",-6.74%
same,GI50,"SF-295; SF-295, five doses (0.01–100 μM), read-out: GI50",1960 nM
same,inhibition at 10 µM,"BT-549; BT-549 (breast cancer), single dose 10 μM, read-out: Growth inhibition percentage (GI %)",-10.6%
same,GI50,"BT-549; BT-549, five doses (0.01–100 μM), read-out: GI50",1550 nM
same,inhibition at 10 µM,"MDA-MB-435; MDA-MB-435 (melanoma), single dose 10 μM, read-out: Growth inhibition percentage (GI %)",39.6%
same,GI50,"MDA-MB-435; MDA-MB-435, five doses (0.01–100 μM), read-out: GI50",1940 nM
same,inhibition at 10 µM,"SR; SR (leukaemia), single dose 10 μM",114%
same,GI50,"SR; SR, five doses (0.01–100 μM), read-out: GI50",360 nM
same,inhibition at 10 µM,"MOLT-4; MOLT-4 (leukaemia), single dose 10 μM, read-out: Growth inhibition percentage (GI %)",88%
same,GI50,"MOLT-4; MOLT-4, five doses (0.01–100 μM), read-out: GI50",2870 nM
same,inhibition at 10 µM,"RXF 393; RXF 393 (renal cancer), single dose 10 μM, read-out: Growth inhibition percentage (GI %)",6.71%
same,GI50,"RXF 393; RXF 393, five doses (0.01–100 μM), read-out: GI50",2120 nM
same,inhibition at 10 µM,"SK-MEL-28; SK-MEL-28 (melanoma), single dose 10 μM, read-out: Growth inhibition percentage (GI %)",58.3%
same,GI50,"SK-MEL-28; SK-MEL-28, five doses (0.01–100 μM), read-out: GI50",2000 nM
same,inhibition at 10 µM,"SN 12C; SN 12C (renal cancer), single dose 10 μM",49.6%
same,GI50,"SN 12C; SN 12C, five doses (0.01–100 μM), read-out: GI50",1870 nM
same,inhibition at 10 µM,"SNB-75; SNB-75 (CNS cancer), single dose 10 μM, read-out: Growth inhibition percentage (GI %)",-1.39%
same,GI50,"SNB-75; SNB-75, five doses (0.01–100 μM), read-out: GI50",2800 nM
same,inhibition at 10 µM,"HL-60(TB); HL-60(TB) (leukaemia), single dose 10 μM, read-out: Growth inhibition percentage (GI %)",138%
same,GI50,"HL-60(TB); HL-60(TB), five doses (0.01–100 μM), read-out: GI50",2200 nM
same,inhibition at 10 µM,SK-OV-3,-31.8%
same,inhibition at 10 µM,OVCAR-4,-6.05%
same,inhibition at 10 µM,NCI-H23,3.27%
same,inhibition at 10 µM,"COLO 205; COLO 205 (colon cancer), single dose 10 μM, read-out: Growth inhibition percentage (GI %)",16.5%
same,GI50,"COLO 205; COLO 205, five doses (0.01–100 μM), read-out: GI50",1890 nM
same,inhibition at 10 µM,"HCT-116; HCT-116 (colon cancer), single dose 10 μM, read-out: Growth inhibition percentage (GI %)",85.1%
same,GI50,"HCT-116; HCT-116, five doses (0.01–100 μM), read-out: GI50",1640 nM
same,inhibition at 10 µM,"SK-MEL-2; SK-MEL-2 (melanoma), single dose 10 μM, read-out: Growth inhibition percentage (GI %)",-10.8%
same,GI50,"SK-MEL-2; SK-MEL-2, five doses (0.01–100 μM)",1990 nM
same,inhibition at 10 µM,"MDA-MB-468; MDA-MB-468 (breast cancer), single dose 10 μM, read-out: Growth inhibition percentage (GI %)",63.7%
same,GI50,"MDA-MB-468; MDA-MB-468, five doses (0.01–100 μM), read-out: GI50",1640 nM

# — paper PMC9848300, “Discovery of novel enasidenib analogues targeting inhibition of mutant isocitrate dehydrogenase 2 as antileukaemic agents” (Journal of Enzyme Inhibition and Medicinal Chemistry, 2023)
